Experimental data as given in patent US10472346B2, “Potent gamma-secretase modulators” (The General Hospital Coporation, priority 2014, dated 2019).

Tested on: Aβ42
Assay: Aβ42 IC50 assay (SHSYSY-APP cell-based screening, UCSD sandwich Aβ42 ELISA)
From the text: FIG. 8: Representative concentration response curves of Compound 1 using our primary and orthogonal medium throughput SHSYSY-APP cell-based screening assays (10). Compounds are first screened two times in triplicate in our UCSD sandwich Aβ42 ELISA on sequential days and the average of the two assays must be within 3-fold of each other before being entered into the CDD relational database. The UCSD sandwich ELISA assay can easily handle 20 compounds per week. Compounds with Aβ42 IC50 values <100 nM continue through the testing funnel. The Z′ score and the % CV for the UCSD Aβ42 sandwich ELISA assay are 0.8 and 4, respectively. For the Meso Scale triplex assay the Z′ scores are 0.7, 0.9 and 0.6 Aβ42, Aβ40 and Aβ38, respectively and the % CV's are 7, 2 and 1 for Aβ42, Aβ40 and Aβ38, respectively. Aβ total peptides are measured using a sandwich ELISA.
Tabular Results of A1142 Assays Conducted on Compounds of Examples 5-102. Assays are Aβ42 IC50 (nM).

| Structure (SMILES) | IC50 [nM] |
| --- | --- |
| COc1cc([C@H](C)Nc2nnc(-c3ccc(-n4cnc(C)c4)c(OC)n3)cc2C)ccc1F [Example 47, (S)—N-(1-(4-fluoro-3-methoxyphenyl)ethyl)-6-(6-methoxy-5-(4-methyl-1H-imidazol-1-yl)pyridin-2-yl)-4-methylpyridazin-3-amine] | 15 |
| COc1nc(-c2cc(C)c(N[C@@H](C)c3ccc(F)c(F)c3)nn2)ccc1-n1cnc(C)c1 [Example 39, (S)—N-(1-(3,4-difluorophenyl)ethyl)-6-(6-methoxy-5-(4-methyl-1H-imidazol-1-yl)pyridin-2-yl)-4-methylpyridazin-3-amine] | 6.5 |
| CC[C@H](Nc1nnc(-c2ccc(-n3cnc(C)c3)c(OC)n2)cc1C)c1ccc(C#N)cc1 [Example 84, (S)-4-(1-((6-(6-methoxy-5-(4-methyl-1H-imidazol-1-yl)pyridin-2-yl)-4-methylpyridazin-3-yl)amino)propyl)benzonitrile] | 23 |
| COc1nc(-c2cc(C)c(N[C@@H](C)c3ccc(C(F)(F)F)cc3)nn2)ccc1-n1cnc(C)c1 [Example 37, (S)-6-(6-methoxy-5-(4-methyl-1H-imidazol-1-yl)pyridin-2-yl)-4-methyl-N-(1-(4-(trifluoromethyl)phenyl)ethyl)pyridazin-3-amine] | 6.3 |
| COc1nc(-c2nnc(NCc3ccc(F)cc3)c(C)c2C)ccc1-n1cnc(C)c1 [Example 18, N-(4-fluorobenzyl)-6-(6-methoxy-5-(4-methyl-1H-imidazol-1-yl)pyridin-2-yl)-4,5-dimethylpyridazin-3-amine] | 82 |
| COc1nc(-c2cc(C)c(N[C@@H](C)c3ccc(F)c(C(F)(F)F)c3)nn2)ccc1-n1cnc(C)c1 [Example 53, (S)—N-(1-(4-fluoro-3-(trifluoromethyl)phenyl)ethyl)-6-(6-methoxy-5-(4-methyl-1H-imidazol-1-yl)pyridin-2-yl)-4-methylpyridazin-3-amine] | 9.8 |
| COc1nc(-c2cc(C)c(N[C@H](c3ccc(F)cc3)C(C)C)nn2)ccc1-n1cnc(C)c1 [Example 57, (S)—N-(1-(4-fluorophenyl)-2-methylpropyl)-6-(6-methoxy-5-(4-methyl-1H-imidazol-1-yl)pyridin-2-yl)-4-methylpyridazin-3-amine] | 4 |
| CC[C@H](Nc1nnc(-c2ccc(-n3cnc(C)c3)c(OC)n2)cc1C)c1ccc(F)cc1 [Example 40, (S)—N-(1-(4-fluorophenyl)propyl)-6-(6-methoxy-5-(4-methyl-1H-imidazol-1-yl)pyridin-2-yl)-4-methylpyridazin-3-amine] | 6.5 |
| COc1nc(-c2cc(C)c(N[C@@H](CO)c3ccc(F)cc3)nn2)ccc1-n1cnc(C)c1 [Example 71, (R)-2-(4-fluorophenyl)-2-((6-(6-methoxy-5-(4-methyl-1H-imidazol-1-yl)pyridin-2-yl)-4-methylpyridazin-3-yl)amino)ethanol] | 22 |
| COc1nc(-c2cc(C)c(N[C@H](C)c3ccccc3)nn2)ccc1-n1cnc(C)c1 [Example 68, (R)-6-(6-methoxy-5-(4-methyl-1H-imidazol-1-yl)pyridin-2-yl)-4-methyl-N-(1-phenylethyl)pyridazin-3-amine] | 80 |
| COc1nc(-c2cc(C)c(NC(C)c3nc4ccccc4o3)nn2)ccc1-n1cnc(C)c1 (racemic) [Example 74, (+/−)—N-(1-(benzo[d]oxazol-2-yl)ethyl)-6-(6-methoxy-5-(4-methyl-1H-imidazol-1-yl)pyridin-2-yl)-4-methylpyridazin-3-amine] | 42 |
| COc1nc(-c2cc(C)c(N[C@H](C)c3ccc(F)cc3Cl)nn2)ccc1-n1cnc(C)c1 [Example 103, (R)—N-(1-(2-chloro-4-fluorophenyl)ethyl)-6-(6-methoxy-5-(4-methyl-1H-imidazol-1-yl)pyridin-2-yl)-4-methylpyridazin-3-amine] | 13 |
| COc1nc(-c2cc(C)c(N[C@@H](C)c3ccc(F)cc3C(F)(F)F)nn2)ccc1-n1cnc(C)c1 [Example 82, (S)—N-(1-(4-fluoro-2-(trifluoromethyl)phenyl)ethyl)-6-(6-methoxy-5-(4-methyl-1H-imidazol-1-yl)pyridin-2-yl)-4-methylpyridazin-3-amine] | 3.5 |
| COc1nc(-c2cc(C)c(N[C@H](C)C(C)C)nn2)ccc1-n1cnc(C)c1 [Example 66, (R)-6-(6-methoxy-5-(4-methyl-1H-imidazol-1-yl)pyridin-2-yl)-4-methyl-N-(3-methylbutan-2-yl)pyridazin-3-amine] | 53 |
| COc1nc(-c2cc(C)c(N[C@H](CO)c3ccc(F)cc3)nn2)ccc1-n1cnc(C)c1 [Example 80, (S)-2-(4-fluorophenyl)-2-((6-(6-methoxy-5-(4-methyl-1H-imidazol-1-yl)pyridin-2-yl)-4-methylpyridazin-3-yl)amino)ethanol] | 1100 |
| CCN(c1nnc(-c2ccc(-n3cnc(C)c3)c(OC)n2)cc1C)[C@@H](C)c1ccc(F)cc1 [Example 20, (S)—N-ethyl-N-(1-(4-fluorophenyl)ethyl)-6-(6-methoxy-5-(4-methyl-1H-imidazol-1-yl)pyridin-2-yl)-4-methylpyridazin-3-amine] | 132 |
| COc1nc(-c2cc(C)c(N[C@@H](C)c3cc(F)c(F)c(F)c3)nn2)ccc1-n1cnc(C)c1 [Example 52, (S)-6-(6-methoxy-5-(4-methyl-1H-imidazol-1-yl)pyridin-2-yl)-4-methyl-N-(1-(3,4,5-trifluorophenyl)ethyl)pyridazin-3-amine] | 5 |
| COc1nc(-c2cc(C)c(N[C@@H]3C[C@H]3c3ccc(F)c(F)c3)nn2)ccc1-n1cnc(C)c1 [Example 83, N-((1R,2S)-2-(3,4-difluorophenyl)cyclopropyl)-6-(6-methoxy-5-(4-methyl-1H-imidazol-1-yl)pyridin-2-yl)-4-methylpyridazin-3-amine] | 27 |
| COc1nc(-c2nnc(N[C@@H](C)c3ccc(F)cc3)c3c2CCC3)ccc1-n1cnc(C)c1 [Example 29, (S)—N-(1-(4-Fluorophenyl)ethyl)-4-(6-methoxy-5-(4-methyl-1H-imidazol-1-yl)pyridin-2-yl)-6,7-dihydro-5H-cyclopenta[d]pyridazin-1-amine] | 12.8 |
| COc1nc(-c2cc(C)c(NC3CCCCC3)nn2)ccc1-n1cnc(C)c1 [Example 81, N-cyclohexyl-6-(6-methoxy-5-(4-methyl-1H-imidazol-1-yl)pyridin-2-yl)-4-methylpyridazin-3-amine] | 27 |
| COc1nc(-c2cc(C)c(N[C@@H](C)C(C)C)nn2)ccc1-n1cnc(C)c1 [Example 61, (S)-6-(6-methoxy-5-(4-methyl-1H-imidazol-1-yl)pyridin-2-yl)-4-methyl-N-(3-methylbutan-2-yl)pyridazin-3-amine] | 27 |
| COc1nc(-c2nnc(N[C@@H](C)c3ccccc3)c(C)c2C)ccc1-n1cnc(C)c1 [Example 17, (S)-6-(6-methoxy-5-(4-methyl-1H-imidazol-1-yl)pyridin-2-yl)-4,5-dimethyl-N-(1-phenylethyl)pyridazin-3-amine] | 37 |
| COc1nc(-c2cc(C)c(N[C@@H](C)c3ccc(C#N)cc3)nn2)ccc1-n1cnc(C)c1 [Example 77, (S)-4-(1-((6-(6-methoxy-5-(4-methyl-1H-imidazol-1-yl)pyridin-2-yl)-4-methylpyridazin-3-yl)amino)ethyl)benzonitrile] | 27 |
| CCC[C@H](Nc1nnc(-c2ccc(-n3cnc(C)c3)c(OC)n2)cc1C)c1ccc(F)cc1 [Example 79, (S)—N-(1-(4-fluorophenyl)butyl)-6-(6-methoxy-5-(4-methyl-1H-imidazol-1-yl)pyridin-2-yl)-4-methylpyridazin-3-amine] | 7.5 |
| COc1nc(-c2cc(C)c(N[C@H](c3ccc(F)cc3)C(C)(C)O)nn2)ccc1-n1cnc(C)c1 [Example 102, (R)-1-(4-fluorophenyl)-1-((6-(6-methoxy-5-(4-methyl-1H-imidazol-1-yl)pyridin-2-yl)-4-methylpyridazin-3-yl)amino)-2-methylpropan-2-ol] | 6 |
| COc1nc(-c2cc(C)c(N[C@@H](C)c3cc(C(F)(F)F)cc(C(F)(F)F)c3)nn2)ccc1-n1cnc(C)c1 [Example 43, (S)—N-(1-(3,5-bis(trifluoromethyl)phenyl)ethyl)-6-(6-methoxy-5-(4-methyl-1H-imidazol-1-yl)pyridin-2-yl)-4-methylpyridazin-3-amine] | 7.5 |
| COc1nc(-c2cc(C)c(N[C@@H](C)c3cccc(C(F)(F)F)c3)nn2)ccc1-n1cnc(C)c1 [Example 49, (S)-6-(6-methoxy-5-(4-methyl-1H-imidazol-1-yl)pyridin-2-yl)-4-methyl-N-(1-(3-(trifluoromethyl)phenyl)ethyl)pyridazin-3-amine] | 7 |
| COc1nc(-c2cc(C)c(NC3CCCC3)nn2)ccc1-n1cnc(C)c1 [Example 78, N-cyclopentyl-6-(6-methoxy-5-(4-methyl-1H-imidazol-1-yl)pyridin-2-yl)-4-methylpyridazin-3-amine] | 61 |
| COc1nc(-c2cc(C)c(NC3CC3)nn2)ccc1-n1cnc(C)c1 [Example 70, N-cyclopropyl-6-(6-methoxy-5-(4-methyl-1H-imidazol-1-yl)pyridin-2-yl)-4-methylpyridazin-3-amine] | 425 |
| COc1nc(-c2cc(C)c(N[C@@H](C)c3cccc(C(F)(F)F)c3F)nn2)ccc1-n1cnc(C)c1 [Example 101, (S)—N-(1-(2-fluoro-3-(trifluoromethyl)phenyl)ethyl)-6-(6-methoxy-5-(4-methyl-1H-imidazol-1-yl)pyridin-2-yl)-4-methylpyridazin-3-amine] | 5 |
